In brackets after ≈: the same amount, converted by molar mass.
Legend:
[1] = system: L. donovani intracellular amastigotes infecting THP-1 macrophages; test: GSK intramacrophage L. donovani assay (LD AMMAC, inMac; Assay Conditions C); type: cell-based; conditions: Leishmania donovani; for IC50: THP-1; for EC50: growth inhibition of L. donovani intracellular amastigotes infecting THP-1 macrophages, read-out: LD AMMAC EC50
How it was run: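 EC50 values come from counting amastigotes per infected THP-1 macrophage (AMMAC). Parallel read-outs give percentage of infected cells per well (INFCELL) and a macrophage-number toxicity EC50 (MAC).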

[2] = system: host THP-1 macrophages; test: GSK inMac assay, host cell toxicity readout (LD MAC); type: cell-based, human; conditions: Homo sapiens, THP-1, cytotoxicity against host THP-1 macrophages
How it was run: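 MAC EC50 reflects THP-1 host cell counts, measured within GSK's inMac L. donovani infection assay that also scores intracellular amastigotes and infected-cell percentage.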

[3] = system: HepG2 cells; test: HepG2 cytotoxicity; type: cell-based; conditions: Homo sapiens; toxicity against HepG2 cells
Method: Given the literature precedents described above and the apparent narrow tolerance for R^3 substitutions observed in the primary screen compounds, a thorough and methodical assessment was undertaken of tolerated groups at the three points of diversity (R^1/R^2/R^3) for the core. At this stage of the project, all analogues were assessed using a battery of assays performed in-house at GlaxoSmithKline. For antileishmanial activity, GSK's inMac assay was utilized. This assay provides two readouts of compound potency: average number of intracellular amastigotes per infected cell (AMMAC) EC50, percentage of infected cells per well (INFCELL) EC50, as well as a toxicity output derived from the number of host cells (MAC EC50). In addition, compounds were assessed for toxicity against HepG2 cells (HEPG2 EC50). Here, AMMAC EC50 values were focused on for relative potency assessments. […] It should be noted that for all compounds assessed in this project, the measured toxicity against THP-1 macrophages either equaled or exceeded that of HepG2 hepatocytes, therefore the MAC SI is used here as the more conservative estimate of therapeutic index.

[4] = system: L. donovani intracellular amastigotes in B10R cells; test: UCSD L. donovani infection assay (Assay Conditions D); type: cell-based; conditions: Leishmania donovani
How it was run: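 Compounds, either single-point at 10 μM or 10-point 2-fold series (3 technical, 2 biological replicates), were incubated 72 h at 37° C. with B10R host cells co-seeded with day-7 stationary L. donovani promastigotes (20:1). DAPI-stained nuclei imaging yielded intracellular parasite EC50 and host-cell CC50.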

[5] = Kinetic aqueous solubility by CLND; type: physicochemical; conditions: kinetic from dmso stock, high-throughput CLND
Method: Solubility of compounds using ChemiLuminescent Nitrogen Detection (CLND) was measured as described. Solubility of compounds using Charged Aerosol Detection (CAD) was measured as described. Solubility of solid compounds in Fasted Simulated Intestinal Fluid (FaSSIF) was measured as described.

[6] = Artificial membrane permeability (AMP); type: in vitro ADME; conditions: PAMPA, pH 7.4
Method: Passive permeability of compounds via rate of permeation through an artificial phospholipid membrane at pH 7.4 was measured in a high-throughput format, in duplicate. A solution of 1.8% phosphatidylcholine in 1% decane was added to a 96-well Millicell filter plate along with 250 μL of 50 mM phosphate buffer, pH 7.4 on the donor side, and 100 μL of the same buffer solution on the receiver side. The assay plate was shaken for 45 minutes before adding test compounds. Test compounds were then added to the filter plate and then incubated at room temperature with shaking for three hours. The donor and receiver solutions were next transferred to a 384-well plate for analysis by LC/MS.

[7] = molecular target: human serum albumin (Homo sapiens, UniProt P02768); test: Human serum albumin (HSA) binding, chromatographic; type: in vitro ADME
Method: The percentage of compound bound to human serum albumin was measured using a chromatographic method as described. Briefly, each compound was assayed on an immobilized HSA column and gradient retention times measured, with chromatographic peak detection by UV. Each retention time was then converted to a % HSA bound value using a calibration set of compounds with a known % HSA binding.

[8] = Property forecast index (PFI = ChromLogD7.4 + aromatic rings); type: physicochemical
[9] = aqueous medium (not further specified)

human serum albumin, sequence (P02768 25-609): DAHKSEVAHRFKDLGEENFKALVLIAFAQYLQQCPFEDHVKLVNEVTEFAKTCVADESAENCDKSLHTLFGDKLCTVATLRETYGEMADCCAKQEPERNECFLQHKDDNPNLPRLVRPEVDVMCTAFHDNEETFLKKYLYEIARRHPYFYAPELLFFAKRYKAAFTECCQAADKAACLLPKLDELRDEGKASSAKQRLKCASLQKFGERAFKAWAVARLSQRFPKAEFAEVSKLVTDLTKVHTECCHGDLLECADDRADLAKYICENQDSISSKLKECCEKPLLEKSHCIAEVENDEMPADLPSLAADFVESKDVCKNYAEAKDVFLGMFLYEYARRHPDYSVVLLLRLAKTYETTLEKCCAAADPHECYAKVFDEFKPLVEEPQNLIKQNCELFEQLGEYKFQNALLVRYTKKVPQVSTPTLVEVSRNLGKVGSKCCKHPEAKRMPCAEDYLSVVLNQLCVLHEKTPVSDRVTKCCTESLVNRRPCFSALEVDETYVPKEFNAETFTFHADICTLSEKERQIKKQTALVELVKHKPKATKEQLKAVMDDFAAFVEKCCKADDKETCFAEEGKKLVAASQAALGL

| SMILES | IC50 [1] | EC50 [1] | EC50 [2] | EC50 [3] | IC50 [4] | solubility ([5]; aqueous (not further specified)) | Papp at 3 h [6] | HSA Binding [7] | PFI [8] | solubility [5, 9] |
| --- | --- | --- | --- | --- | --- | --- | --- | --- | --- | --- |
| CC(C)Cc1n[nH]c2c1C(c1ccc(F)cc1)N(c1ccc(N(C)C)cc1)C2=O (stereo not shown) [Compound 21, 5-(4-(dimethylamino)phenyl)-4-(4-fluorophenyl)-3-isobutyl-4,5-dihydropyrrolo[3,4-c]pyrazol-6(1H)-one] | 1 µM | 1 µM | 39.8 µM | 50.1 µM | 0.2 µM | 33 µM (≈ 13 µg/mL) | 16 ×10⁻⁶ cm/s | 96.1% | 9.0 |  |
| CC(C)Cc1n[nH]c2c1C(c1ccc(F)cc1)N(CCN1CCCC1)C2=O (stereo not shown) [Compound 39] | 15.9 µM | 15.8 µM | > 50 µM | > 100 µM | 10.4 µM |  | 23 ×10⁻⁶ cm/s | 76.7% | 5.3 | ≥ 433 µM |
| COc1ccc(N2C(=O)c3[nH]nc(CC(C)C)c3C2c2ccccc2OC)cc1 (stereo not shown) [Compound 57, 3-isobutyl-4-(2-methoxyphenyl)-5-(4-methoxyphenyl)-4,5-dihydropyrrolo[3,4-c]pyrazol-6(1H)-one] |  | 0.5 µM | 25.1 µM | 6.3 µM |  |  | 35 ×10⁻⁶ cm/s | 95.7% | 8.6 | 57 µM (≈ 22.3 µg/mL) |
| COc1ccc(N2C(=O)c3[nH]nc(CC(C)C)c3C2c2cccc(F)c2)cc1 (stereo not shown) [Compound 58] |  | 5 µM | 12.6 µM | 50.1 µM |  |  | 37 ×10⁻⁶ cm/s | 96.9% | 8.3 | 91 µM (≈ 34.5 µg/mL) |
| COc1ccc(N2C(=O)c3[nH]nc(CC(C)C)c3C2c2cccc(Cl)c2)cc1 (stereo not shown) [Compound 59] |  | 7.9 µM | 39.8 µM | 39.8 µM |  |  | 28 ×10⁻⁶ cm/s | 96.8% | 9.0 | 19 µM (≈ 7.52 µg/mL) |
| COc1ccc(N2C(=O)c3[nH]nc(CC(C)C)c3C2c2cccc(Br)c2)cc1 (stereo not shown) [Compound 60] |  | 7.9 µM | 25.1 µM | 39.8 µM |  |  | 37 ×10⁻⁶ cm/s | 97% | 9.1 | 10 µM (≈ 4.4 µg/mL) |
| COc1ccc(N2C(=O)c3[nH]nc(CC(C)C)c3C2c2cccc(OC)c2)cc1 (stereo not shown) [Compound 61] |  | 4 µM | 20 µM | 63.1 µM |  |  | 29 ×10⁻⁶ cm/s | 95% | 8.4 | 63 µM (≈ 24.7 µg/mL) |
| COc1ccc(N2C(=O)c3[nH]nc(CC(C)C)c3C2c2cccc(C(F)(F)F)c2)cc1 (stereo not shown) [Compound 62] |  | 6.3 µM | 15.8 µM | 50.1 µM |  |  | 22 ×10⁻⁶ cm/s | 97.8% | 8.9 | 20 µM (≈ 8.59 µg/mL) |
| COc1ccc(N2C(=O)c3[nH]nc(CC(C)C)c3C2c2ccc(F)cc2F)cc1 (stereo not shown) [Compound 63] |  | 2 µM | 25.1 µM | 63.1 µM |  |  | 14 ×10⁻⁶ cm/s | 96.1% | 8.8 | 52 µM (≈ 20.7 µg/mL) |
| COc1ccc(N2C(=O)c3[nH]nc(CC(C)C)c3C2c2ccc(F)cc2C)cc1 (stereo not shown) [Compound 64, 4-(4-fluoro-2-methylphenyl)-3-isobutyl-5-(4-methoxyphenyl)-4,5-dihydropyrrolo[3,4-c]pyrazol-6(1H)-one] |  | 0.5 µM | 25.1 µM | 50.1 µM |  |  | 11 ×10⁻⁶ cm/s | 97.2% | 8.8 | 43 µM (≈ 16.9 µg/mL) |
| COc1ccc(N2C(=O)c3[nH]nc(CC(C)C)c3C2c2ccc(F)c(F)c2)cc1 (stereo not shown) [Compound 65, 4-(3,4-difluorophenyl)-3-isobutyl-5-(4-methoxyphenyl)-4,5-dihydropyrrolo[3,4-c]pyrazol-6(1H)-one] |  | 5 µM | 25.1 µM | 50.1 µM |  |  | 14 ×10⁻⁶ cm/s | 96.2% | 8.7 | 44 µM (≈ 17.5 µg/mL) |
| COc1ccc(N2C(=O)c3[nH]nc(CC(C)C)c3C2c2c(Cl)cccc2Cl)cc1 (stereo not shown) [Compound 66] |  | 1 µM | 2.5 µM | 6.3 µM |  |  | 33 ×10⁻⁶ cm/s | 97.1% | 9.1 | 6 µM (≈ 2.58 µg/mL) |
| COc1ccc(N2C(=O)c3[nH]nc(CC(C)C)c3C2C2CCN(Cc3ccccc3)CC2)cc1 (stereo not shown) [Compound S1] |  | 15.8 µM | 20 µM | 63.1 µM |  |  | 29 ×10⁻⁶ cm/s | 94.8% | 9.0 | 188 µM (≈ 86.2 µg/mL) |
| COc1ccc(N2C(=O)c3[nH]nc(CC(C)C)c3C2c2cccs2)cc1 (stereo not shown) [Compound S2] |  | 7.9 µM | > 50 µM | > 100 µM |  |  | 30 ×10⁻⁶ cm/s | 95.9% | 8.2 | 8 µM (≈ 2.94 µg/mL) |
| COc1ccc(N2C(=O)c3[nH]nc(CC(C)C)c3C2c2cncs2)cc1 (stereo not shown) [Compound S4] |  | 15.8 µM | > 50 µM | > 100 µM |  |  | 32 ×10⁻⁶ cm/s | 89.3% | 6.5 | ≥ 534 µM |
| COc1ccc(N2C(=O)c3[nH]nc(CC(C)C)c3C2c2nccs2)cc1 (stereo not shown) [Compound S5] |  | 20 µM | > 50 µM | > 100 µM |  |  | 42 ×10⁻⁶ cm/s | 89.5% | 7.2 | 143 µM (≈ 52.7 µg/mL) |
| COc1ccc(N2C(=O)c3[nH]nc(CC(C)C)c3C2c2ccncc2)cc1 (stereo not shown) [Compound S6] |  | > 50 µM | > 50 µM | > 100 µM |  |  | 23 ×10⁻⁶ cm/s | 87.9% | 6.3 | ≥ 432 µM |
| COc1ccc(N2C(=O)c3[nH]nc(CC(C)C)c3C2c2ccccn2)cc1 (stereo not shown) [Compound S7] |  | 31.6 µM | > 50 µM | > 100 µM |  |  | 42 ×10⁻⁶ cm/s | 86.8% | 7.1 | ≥ 450 µM |
| COc1ccc(N2C(=O)c3[nH]nc(CC(C)C)c3C2c2ccncn2)cc1 (stereo not shown) [Compound S8] |  | > 50 µM | > 50 µM | > 100 µM |  |  | 34 ×10⁻⁶ cm/s | 76.8% | 6.3 | 273 µM (≈ 99.2 µg/mL) |
| COc1ccc(N2C(=O)c3[nH]nc(CC(C)C)c3C2c2ccnnc2)cc1 (stereo not shown) [Compound S9] |  | > 50 µM | > 50 µM | > 100 µM |  |  | 5 ×10⁻⁶ cm/s | 70.5% | 5.5 | ≥ 340 µM |
| COc1ccc(N2C(=O)c3[nH]nc(CC(C)C)c3C2c2cncc(OC)c2)cc1 (stereo not shown) [Compound S11] |  | 10 µM | 20 µM | > 100 µM |  |  | 47 ×10⁻⁶ cm/s | 91.2% | 6.6 | 386 µM (≈ 151 µg/mL) |
| COc1ccc(N2C(=O)c3[nH]nc(CC(C)C)c3C2c2ccc(OC)nc2)cc1 (stereo not shown) [Compound S12] |  | > 50 µM | > 50 µM | > 100 µM |  |  | 44 ×10⁻⁶ cm/s | 92.6% | 7.5 | 272 µM (≈ 107 µg/mL) |
| COc1ccc(N2C(=O)c3[nH]nc(CC(C)C)c3C2c2ccc(F)c(C)n2)cc1 (stereo not shown) [Compound S13] |  | 12.6 µM | > 50 µM | > 100 µM |  |  | 38 ×10⁻⁶ cm/s | 94.4% | 8.3 | 305 µM (≈ 120 µg/mL) |
| COc1ccc(N2C(=O)c3[nH]nc(CC(C)C)c3C2c2cc(F)nc(F)c2)cc1 (stereo not shown) [Compound S14] |  | > 50 µM | > 50 µM | > 100 µM |  |  | 54 ×10⁻⁶ cm/s | 93% | 7.4 | 367 µM (≈ 146 µg/mL) |
